One test relates to SV-MES mesangial cells. In words: eIF2α phosphorylation in SV-MES mesangial cells (western blot). Type of test: cell-based. The settings on record: 20 nM HF, 2 hours. On the procedure: SV-MES mesangial cells were stimulated for 2 hours with DMSO, 20 nM MAZ1310 or 20 nM HF. Whole cell lysates were analyzed for expression of phosphorylated or total eIF2α or GCN2 by western blotting.
Western blotting: Whole cell lysates were generated from T cells activated for the indicated times. For STAT3 and Smad2/3 western blots cells were harvested, washed in PBS and lysed in 50 mM Tris, pH 7.4, 0.1% SDS, 1% Triton-×100, 140 mM NaCl, 1 mM EDTA, 1 mM EGTA supplemented with protease inhibitors tablets (Roche—Germany), 1 mM NaF and 1 mM Na3VO4. For eIF2α and ATF4 western blots, cells were harvested as above and lysed in 50 mM Tris, pH 7.4, 2% SDS, 20% glycerol and 2 mM EDTA supplemented with protease and phosphatase inhibitors as above. All lysates were cleared via centrifugation and 15-30 μg of protein was resolved by SDS-PAGE. Protein was transferred to nitrocellulose membranes, blocked and blotted using specific antibodies. Antibodies used for western blot analysis were anti-phospho-Smad2, anti-STAT3 (pY705), anti-STAT3, anti-eIF2α^pS51, anti-eIF2α, anti-GCN2^pT898, anti-GCN2 (all from cell signaling technology, Danvers, Mass.). Anti-ATF4/CREB2 and anti-β-actin were purchased from Santa Cruz biotechnology (Santa Cruz, Calif.). […]
For orientation: In western blotting, separated proteins are transferred to a membrane and probed.

The test system of test [1] is human memory T cells (CD4+ CD45RO+). The test is described as follows: IL-17 and IFNγ expression by human memory T cells co-cultured with monocytes. The note with it: 100 nM HF, 6 days. Type of test: cell-based. On the procedure: FIG. 10F is an illustration depicting purified primary human memory T cells (CD4^+ CD45RO^+) activated by anti-CD3/anti-CD28 coated beads in co-culture with CD14^+ monocytes and treated with DMSO, 100 nM HF or 100 nM MAZ1310. T cells were expanded for 6 days and intracellular cytokine expression was determined following restimulation with PMA plus ionomycin in the presence of brefeldin A.
Human T cell isolation and activation: Resting CD4^+ T cells were isolated from PBMC of healthy human donors using Dynal CD4 Positive Isolation Kit (Invitrogen, Carlsbad, Calif.) as previously described (M. Sundrud et al., Blood 106, 3440, 2005). CD4^+ cells were further purified to obtain memory T cells by staining with PE-conjugated anti-human CD45RO-PE antibodies (BD Biosciences), and sorting on a FACSAria cytometer (BD Biosciences). Following purification, cells were greater than 99% CD4^+ CD45RO^+. […] T cells were expanded in the presence HF or MAZ1310 as indicated for 6 days and intracellular cytokine expression was determined by intracellular staining.
Detection of cytokine production: Cytokines secreted into media supernatant were measured using the mouse Th1/Th2 cytometric bead array (CBA, BD Pharmingen) in accordance with manufacturers instructions. […]

For `O=C(CC1NCCCC1O)Cn1cnc2cc(Br)c(Cl)cc2c1=O` (racemic) [HF, 7-bromo-6-chloro-3-[3-(3-hydroxy-2-piperidinyl)-2-oxopropyl]-4(3H)-quinazolinone], in the test with SV-MES mesangial cells, the “eIF2α phosphorylation in cultured fibroblasts” value was “increased eIF2α phosphorylation”. Further, in test [1], the “IFNγ expression by human T cells” value is “essentially unaffected”; the “percentage of human T cells expressing IL-17 and amount of IL-17 produced” value is on record as “greatly reduced”.

These data come from patent US20090123389A1, “Methods for modulating Th17 cell development in the treatment and prevention of cellulite” (priority 2007, published 2009).
